Converted amounts (≈) assume the structure as drawn. “Also recorded” adds a separate entry of the source. Marks after values point to notes of the source that are not given here.
Assays:
TLR4 = TLR4 (Homo sapiens, UniProt O00206+Q9Y6Y9); assay: TLR4 NF-κB SEAP reporter assay in HEK-Blue hTLR4 cells; settings: for concentration at which compound activated TLR4: dose-response 0.5–10 μM (17–21) or 1–100 μM (27–31)
[1] = Kinetic solubility in PBS (HPLC solubility assay); settings: aqueous buffer, kinetic from dmso stock
human PBMCs = settings: 1 μM, 18 h
NOD2 = NOD2 (Homo sapiens, UniProt Q9HC29); assay: NOD2 NF-κB SEAP reporter assay in HEK-Blue hNOD2 cells; settings: for NOD2 agonist activity: compared with NOD2 agonist 3 and MDP (4 μM)
[2] = set-up: method as in previous studies; settings: kinetic solubility; ref previous studies; cited from earlier work
[3] = set-up: method as in previously reported; settings: ref previously reported; cited from earlier work
[4] = 18 h, NF-κB transcriptional activity (SEAP) relative to 0.1% DMSO
[5] = PBS, Solubility sample 1, Tables S1–S3, replicate 1
[6] = PBS, Solubility sample 2, Tables S1–S3, replicate 2
[7] = PBS, solubility in PBS, kinetic solubility, HPLC solubility assay

TLR4, sequence (O00206 24-839): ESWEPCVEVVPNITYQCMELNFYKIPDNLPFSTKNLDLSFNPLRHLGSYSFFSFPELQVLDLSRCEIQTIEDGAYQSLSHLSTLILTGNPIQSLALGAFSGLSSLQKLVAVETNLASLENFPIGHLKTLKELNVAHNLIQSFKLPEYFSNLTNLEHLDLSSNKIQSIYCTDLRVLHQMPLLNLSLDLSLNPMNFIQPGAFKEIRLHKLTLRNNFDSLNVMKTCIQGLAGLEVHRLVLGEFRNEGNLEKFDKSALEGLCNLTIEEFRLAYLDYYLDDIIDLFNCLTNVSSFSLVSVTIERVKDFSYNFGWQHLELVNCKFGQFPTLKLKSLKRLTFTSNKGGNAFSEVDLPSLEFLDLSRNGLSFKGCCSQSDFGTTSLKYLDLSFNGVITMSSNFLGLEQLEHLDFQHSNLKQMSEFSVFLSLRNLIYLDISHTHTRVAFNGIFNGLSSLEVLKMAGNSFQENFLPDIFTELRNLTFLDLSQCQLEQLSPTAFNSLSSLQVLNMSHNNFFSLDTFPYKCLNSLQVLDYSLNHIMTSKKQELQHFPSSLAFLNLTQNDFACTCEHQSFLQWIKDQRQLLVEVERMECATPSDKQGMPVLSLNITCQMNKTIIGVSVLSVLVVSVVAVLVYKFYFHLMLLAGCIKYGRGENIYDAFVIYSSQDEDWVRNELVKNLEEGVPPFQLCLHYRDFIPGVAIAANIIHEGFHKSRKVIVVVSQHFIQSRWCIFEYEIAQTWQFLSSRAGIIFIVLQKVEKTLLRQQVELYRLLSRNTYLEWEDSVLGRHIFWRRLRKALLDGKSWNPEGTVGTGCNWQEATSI
TLR4, sequence (Q9Y6Y9 17-160 limits assumed): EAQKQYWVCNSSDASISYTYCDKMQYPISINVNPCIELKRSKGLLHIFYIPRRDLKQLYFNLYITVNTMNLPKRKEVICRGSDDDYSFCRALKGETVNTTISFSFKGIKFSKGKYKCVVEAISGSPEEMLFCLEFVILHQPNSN
NOD2, sequence (Q9HC29 whole entry): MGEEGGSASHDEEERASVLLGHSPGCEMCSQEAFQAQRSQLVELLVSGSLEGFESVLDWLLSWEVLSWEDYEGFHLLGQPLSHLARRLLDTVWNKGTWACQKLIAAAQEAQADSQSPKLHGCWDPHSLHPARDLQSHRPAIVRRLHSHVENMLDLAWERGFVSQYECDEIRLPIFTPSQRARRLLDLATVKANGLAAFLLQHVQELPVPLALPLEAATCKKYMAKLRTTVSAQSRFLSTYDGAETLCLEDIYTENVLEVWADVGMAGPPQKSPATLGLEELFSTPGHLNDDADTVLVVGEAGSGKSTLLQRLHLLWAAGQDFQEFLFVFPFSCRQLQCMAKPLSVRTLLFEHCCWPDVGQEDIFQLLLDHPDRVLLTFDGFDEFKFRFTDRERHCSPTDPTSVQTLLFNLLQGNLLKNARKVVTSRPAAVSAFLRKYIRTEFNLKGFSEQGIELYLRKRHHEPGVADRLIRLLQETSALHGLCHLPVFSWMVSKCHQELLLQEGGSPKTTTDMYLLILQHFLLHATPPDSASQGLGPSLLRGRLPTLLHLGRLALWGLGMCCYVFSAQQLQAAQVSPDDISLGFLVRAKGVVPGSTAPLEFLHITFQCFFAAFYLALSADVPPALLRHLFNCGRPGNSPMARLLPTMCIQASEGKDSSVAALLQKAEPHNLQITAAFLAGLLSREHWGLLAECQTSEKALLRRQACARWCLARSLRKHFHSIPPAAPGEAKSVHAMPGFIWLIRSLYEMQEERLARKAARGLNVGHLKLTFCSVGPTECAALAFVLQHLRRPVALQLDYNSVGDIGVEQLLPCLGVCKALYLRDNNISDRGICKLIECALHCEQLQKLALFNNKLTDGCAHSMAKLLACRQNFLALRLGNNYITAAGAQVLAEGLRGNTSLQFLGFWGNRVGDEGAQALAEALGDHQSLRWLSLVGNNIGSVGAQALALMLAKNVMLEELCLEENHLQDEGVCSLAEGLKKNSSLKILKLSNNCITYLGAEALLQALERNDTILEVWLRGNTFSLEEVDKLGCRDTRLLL

CCOC(=O)[C@@H](CCC(=O)N1CCC(CN2CCN(C(=O)Cc3ccc(C(C(=O)NC4CCCC4)N(C(=O)c4cc(-c5ccccc5)n(-c5ccccc5)n4)c4ccc5c(c4)CCC5)cc3)CC2)CC1)NC(=O)[C@@H](NC(=O)CNC(=O)/C=C/c1ccc(O)c(OC)c1)C(C)C (stereo partly drawn) [Compound 21, Ethyl (2R)-5-(4-((4-(2-(4-(2-(Cyclopentylamino)-1-(N-(2,3-dihydro-1H-inden-5-yl)-1,5-diphenyl-1H-pyrazole-3-carboxamido)-2-oxoethyl)phenyl)acetyl)piperazin-1-yl)methyl)piperidin-1-yl)-2-((S)-2-(2-((E)-3-(4-hydroxy-3-methoxyphenyl)acrylamido)acetamido)-3-methylbutanamido)-5-oxopentanoate]
TLR4 activation at 10 μM, fold increase (TLR4; [4]): 5.30 fold increase
maximum TLR4 activation (TLR4; HEK-Blue hTLR4, 21 at 10 μM): 5.30 fold
concentration at which compound activated TLR4 (TLR4): 0.5 µM
solubility [1, 5]: 0.34 µM (≈ 0.44 µg/mL)
solubility [1, 6]: 0.32 µM (≈ 0.414 µg/mL)
solubility [1, 7]: 0.33 µM (≈ 0.427 µg/mL)
overall cytokine production (human PBMCs): most potent immunomodulator in the series
production of IL-6, IL-10, TNF-α, and IFN-γ (human PBMCs): moderately enhanced
NOD2 activation at 10 μM, fold increase (NOD2; [4]): 3.31 fold increase
NOD2 agonist activity (NOD2): comparable efficiency to MDP

CCOC(=O)C(CCC(=O)O)NC(=O)C(NC(=O)CNC(=O)C=Cc1ccc(O)c(OC)c1)C(C)C (centres unmarked) [Compound 3, reference compound]
solubility in PBS [2]: 414.8 ^c μM
NOD2 activation, fold increase (NOD2; 2 μM, 18 h, NF-κB transcriptional activity (SEAP) relative to 0.1% DMSO): 3.06 ^d fold increase

COc1cc(/C=C/C(=O)NCC(=O)N[C@H](C(=O)N[C@H](CCC(=O)OC2CCCC2)C(=O)OC2CCCC2)C(C)C)ccc1OC(=O)CCCCCNC(=O)CSc1nc2c([nH]c3ccccc32)c(=O)n1-c1ccccc1 [Compound 2, reference compound]
immunostimulatory activity [3]: inactivity; also recorded: lacked immunostimulatory activity
solubility [1, 5]: 0.26 µM (≈ 0.276 µg/mL)
solubility [1, 6]: 0.44 µM (≈ 0.467 µg/mL)
solubility [1, 7]: 0.35 µM (≈ 0.372 µg/mL)

CCOC(=O)[C@H](CCC(=O)NCCNC(=O)Cc1ccc(C(C(=O)NC2CCCC2)N(C(=O)c2cc(-c3ccccc3)n(-c3ccccc3)n2)c2ccc3c(c2)CCC3)cc1)NC(=O)[C@@H](NC(=O)CNC(=O)/C=C/c1ccc(O)c(OC)c1)C(C)C (stereo partly drawn) [Compound 17, Ethyl N ^5-(2-(2-(4-(2-(Cyclopentylamino)-1-(N-(2,3-dihydro-1H-inden-5-yl)-1,5-diphenyl-1H-pyrazole-3-carboxamido)-2-oxoethyl)phenyl)acetamido)ethyl)-N ^2-((E)-3-(4-hydroxy-3-methoxyphenyl)acryloyl)glycyl-L-valyl-D-glutaminate]
TLR4 activation at 10 μM, fold increase (TLR4; [4]): 5.10 fold increase
concentration at which compound activated TLR4 (TLR4): 1.0 µM
solubility [1, 5]: 0.68 µM (≈ 0.796 µg/mL)
solubility [1, 6]: 0.83 µM (≈ 0.971 µg/mL)
solubility [1, 7]: 0.76 µM (≈ 0.889 µg/mL)
NOD2 activation at 10 μM, fold increase (NOD2; [4]): 3.66 fold increase
NOD2 agonist activity (NOD2): comparable efficiency to MDP

CCOC(=O)[C@H](CCC(=O)N1CCC(CN2CCN(C(=O)CSc3nc4c([nH]c5ccccc54)c(=O)n3-c3ccccc3)CC2)CC1)NC(=O)[C@H](NC(=O)CNC(=O)/C=C/c1ccc(O)c(OC)c1)C(C)C [Compound 31, Ethyl (S)-2-((R)-2-(2-((E)-3-(4-Hydroxy-3-methoxyphenyl)acrylamido)acetamido)-3-methylbutanamido)-5-oxo-5-(4-((4-(2-((4-oxo-3-phenyl-4,5-dihydro-3H-pyrimido[5,4-b]indol-2-yl)thio)acetyl)piperazin-1-yl)methyl)piperidin-1-yl)pentanoate]
TLR4 activation at 10 μM, fold increase (TLR4; [4]): 1.05 fold increase
TLR4 activation at 100 μM, fold increase (TLR4; 100 μM, 18 h, NF-κB transcriptional activity (SEAP) relative to 0.1% DMSO): 2.26 fold increase
solubility ([1]; Solubility sample 1, Tables S1–S3, replicate 1): 7.22 µM (≈ 7.26 µg/mL)
solubility ([1]; Solubility sample 2, Tables S1–S3, replicate 2): 6.15 µM (≈ 6.19 µg/mL)
solubility ([1]; solubility in PBS, kinetic solubility, HPLC solubility assay): 6.68 µM (≈ 6.72 µg/mL)
NOD2 activation at 10 μM, fold increase (NOD2; [4]): 3.33 fold increase
